The MIC is the lowest concentration that inhibits growth of the organism.

Data set [1] relates to Enterococcus faecalis OG1RF. Kind of data set: MIC by broth microdilution against E. faecalis OG1RF. As to conditions: BHI. It is filed as cell-based. The protocol: The respective minimum inhibition concentration (MIC) of each COE molecule was determined using a broth microdilution method. Briefly, COEs were diluted via a 2-fold dilution series in 100 μL of either Muller Hinton Broth (MHB) for E. coli and S. aureus or Brain Heart Infusion Broth (BHI) for E. faecalis in a 96-well plate to achieve the desired final concentration. Subsequently, each well was inoculated with 100 μL of 1×10^6 colony forming units (CFU) mL^−1 of the respective microorganism in MHB for E. coli or BHI for E. faecalis to achieve an inoculum density of 5×10^5 CFU mL^−1. The plates were then incubated at 37° C. with shaking (200 rpm) for 18 hrs. […] The results were obtained in triplicate.
The MIC values of COE-D4, COE-D6 and COE-D8 against the reference strain E. coli K12, pathogenic E. coli UT189, and the Gram positive pathogen Enterococcus faecalis OG1RF were determined using a broth microdilution method as described in the general method above. The MICs for E. coli K12 were determined to be 128, 16, and 4 μg mL^−1 for COE-D4, COE-D6, and COE-D8, respectively (FIG. 5a). […] This is not surprising as these two organisms differ in the capsular polysaccharides that they expressed, which are known to hinder the uptake of antimicrobials and mitigate their potency (M. A. Campos, et al., Infect. Immun. 2004, 72, 7107-7114). […]
(Broth dilution looks for growth in wells or tubes with falling amounts of substance.)

Data set [2] concerns human erythrocytes. Kind of data set: Haemolysis assay. In kind it is cell-based. The protocol: 1 mL of mammalian blood, collected from a healthy donor, was mixed with 9 mL of PBS and centrifuged at 1,000 rpm for 5 min. Red blood cell pellet was collected and subsequently washed with PBS three times and diluted to a final concentration of 5% v/v. The various COEs were dissolved in PBS and two folds serial diluted in a 96-well microplate. 50 μL of red blood cell stock was mixed with 50 μL of COE solution in each well and incubated for 1 hr at 37° C. under shaking. The microplate was centrifuged at 1,000 rpm for 10 min. 80 μL aliquots of the supernatant were then transferred to a new 96-well microplate and diluted with another 80 μL of PBS. Haemolytic activity was calculated by measuring absorbance at 540 nm using a 96-well plate spectrophotometer. Triton X-100 (0.1% in PBS), which is able to lyse red blood cells, completely was used as positive control, while PBS was used as negative control. The haemolysis percentage was calculated using the following formula:
[formula] where Op is the absorbance of the COE-treated sample, Ob is the absorbance of negative control and Ot is the absorbance of positive control. Results and Discussions
The selectivity of COEs towards bacteria or mammalian cells can be quantified using the ratio between the concentrations leading to 50% lysis of human erythrocytes (HC50) and the MIC value.

Data set [3] is described as follows: Intrinsic clearance in human. In kind it is in vitro ADME.

`C[N+](C)(C)CCCCCCCCOc1ccc(/C=C/c2ccc(OCCCCCCCC[N+](C)(C)C)cc2)cc1` [COE-D8] had a minimum inhibitory concentration (MIC) in data set [1] of 4 mg/L.
`CN(C)CC[N+](C)(C)CCCCCCOc1ccc(/C=C/c2ccc(OCCCCCC[N+](C)(C)CCN(C)C)cc2)cc1` [COE-D62N]: the Toxicity towards erythrocytes entry in data set [2] is given as “non-toxic”. For the same compound, the “intrinsic clearance in human” value in data set [3] is reported as “good”.
